In patent publication US9387160B2, “Composition and method of treating skin conditions” (Johnson & Johnson Consumer Holdings France, priority 2008, dated 2016):

Tests used:
[1] = RPI=log K, octanol/water; cited from earlier work
[2] = Relative polarity index (RPI = log K, octanol/water partition coefficient); type: physicochemical; details: difference between Emollient RPI and Retinoid RPI
Text: The relative polarity index (RPI) of an emollient is well known by the one skilled in the art. The methodology for its calculation is described in the article published by Wiesher et al. 2004 Int J. Cosmetic Science. 26, 173-182. RPI can be calculated from the octanol/water partition coefficient (K) with: RPI=log K. Partition coefficient estimations K have been published, for example in: • Leo A, Hansch C, and Elkins D (1971). “Partition coefficients and their uses”. Chem Rev 71 (6): 525-616. • Wilkinson, Andrew M.; McNaught, Alan D. (1997). “Partition Coefficient”. Compendium of Chemical Terminology: IUPAC Recommendations. Oxford: Blackwell Science. doi:10.1351/goldbook. ISBN 0-86542-684-8. http://goldbook.iupac.org/P0447.html and • Sangster, James (1997). Octanol-Water Partition Coefficients: Fundamentals and Physical Chemistry, Vol. 2 of Wiley Series in Solution Chemistry. Chichester: John Wiley & Sons Ltd. pp. 178 pages. The RPI of retinol is approximatively 1. The RPI of retinal and retinol esters are well-known by the one skilled in the art and are similar to RPI of retinol. The net RPI of an emollient to the retinoid is the difference between the Emollient RPI and the Retinoid RPI. The net RPI of a composition to the retinoid is the difference between the Composition RPI and the Retinoid RPI. […]

Molecule | RPI (relative polarity index) [1] | net relative polarity index to retinol [2]
CC1=C(/C=C/C(C)=C/C=C/C(C)=C/CO)C(C)(C)CCC1 [retinol] | ~1 | –
PPG15 stearyl ether | – | having the same polarity as retinol
CCCCCCCCCCCCCC(C)C [isohexadecane] | – | 9.11
